Experimental data from patent US6458577B1, “Methods of culturing and assaying a virus in a specimen and compositions and cell lines for doing the same” (priority 1997, dated 2002).
Where “and” joins values, the source holds several entries; their conditions need not be identical. Equal values may be shown once. Marks after values point to notes of the source that are not given here.

Columns and labels:
HSV-1 in mink lung cells = test: HSV-1 shell vial culture in NaB-treated mink lung cells, foci of cytopathic effect under light microscope; format: cell-based; details: for cpe = foci of cytopathic effect: mink lung cells, average of two shell vials
Procedure: (§1) Mink lung cells available from American Type Culture Collection ATTC No. CCL64 are provided. The cells are received in frozen vials from ATCC and are prepared by first thawing in a 37° C. water bath. The thawed cells are removed from the bath and cultured in a tissue culture flask with Opti MEM culture medium supplemented with 5% fetal calf serum and non-essential amino acids, available from Life Technologies, Inc., of Gaithersburg, Md., and the antibiotics penicillin (100 units/ml), streptomycin (100 μg/ml) and the fungizone amphotericin (0.25 μg/ml). The cultured cells reach a complete monolayer in about 3 to 4 days. The mink lung cells are propagated by trypsinization and approximately 2.5×10^5 dispersed cells per shell vial are seeded in shell vials with cover slips. The shell vials are incubated at 37° C. for 24 hours or until the cells form a monolayer.
Mink lung cells were prepared as described in Example 1. Cells were then infected with HSV-1 (originally from clinical specimens but passaged once in tissue culture so virus content is assured). The HSV-1 culture fluid was diluted 1:1000 before use for inoculation. In each shell vial, 0.2 ml of inoculum was used. After centrifuging for 45 minutes at 700×g at 23° C., 0.5 ml of Opti-MEM with 2% fetal calf serum was added to each vial and incubated overnight at 37° C. The following day, the cytopathic effect of the inoculated culture was observed under light microscope. The results are reported in Table 2 and are from the average of two shell vials.

CMV in MRC-5 cells = test: CMV shell vial culture in NaB-treated MRC-5 cells, immunofluorescent staining, count of stained nuclei; format: cell-based, human; details: for counts of positive stained nuclei from 2 shell vials: 80 mM sodium butyrate 24 hours before infection, MRC-5, cell age 2 days; for MRC-5 cells # of stained nuclei: 2 mM CaCl2, 1% DMSO, 10^-5M dexamethasone after infection
Procedure: (§2) The cells were then treated with a 5 mM sodium butyrate (NaB) tissue culture solution, prepared by dissolving the appropriate amount of NaB in tissue culture media and filtering the solution, and incubated for 16 to 24 hours. After incubation the NaB and tissue culture media is removed and the treated cells are inoculated with 0.2 ml of CMV inoculum originally from a clinical specimen obtained from urine and prepared by putting the specimen into a viral transport medium containing Hank's buffer, 1% bovine albumin and the antibiotics penicillin (200 units/ml) and streptomycin (200 μg/ml) and the fungizone amphotericin (0.5 μg/ml). After inoculation the shell vials are centrifuged at 700×g for 45 minutes at 23° C. After centrifugation, 0.5 ml of fresh media is added to each vial and the vials are incubated at 37° C. for 16 to 24 hours. After incubation the media is removed and the cell layers are rinsed with phosphate buffered saline (PBS), fixed with cold acetone for 10 minutes, and rinsed again with PBS.
(§3) After fixing, the cells are stained by adding 100 μl of CMV monoclonal antibody (mAb), incubated at 37° C. for 45 minutes and then rinsed with PBS. The CMV mAb used is E-13 monoclonal antibody against immediate early (IE) antigen of CMV. This antibody is used as a primary antibody in the first step of staining and is available from Accurated Chemical and Scientific Co., Westbury, N.Y. After the first staining step 100 μl of biotin which is conjugated with antimouse IgG is added followed by additional incubation at 37° C. for 45 minutes. The biotin complex is available from Boerhinger Mannheim Co., Indianapolis, Ind. The cells are rinsed again with PBS after incubation and then incubated with 100 μl of streptavidin conjugated with fluorescein isothiocyanate (FITC) for 45 minutes at 37° C. The streptavidin complex is also available from Boerhinger Mannheim Co., Indianapolis, Ind. After a final rinse with PBS, a coverslip removed from the shell vial is mounted on the slide which is then examined under a fluorescence equipped microscope manufactured in Germany by Carl Zeiss, Inc., and available from W. Nuhsbaum, McHenry, II. The specific apple-green stained nuclei were counted. The results are reported in Table 1 as positive stained nuclei as an average of four shell vials.
Conventionally, human embryonic lung (HEL) fibroblast cells, such as the MRC-5 cell line which is available from Diagnostic Hybrids, Inc., Athens, Ohio, are used worldwide for CMV culture and viral isolation.
These examples were prepared using the same procedure as Example 1, except that the concentration of NaB used was varied and both mink lung cells and MRC-5 cells were used. Also, the MRC-5 were treated with NaB before infection and 2 mM CaCl2, 1% DMSO and 10^−5M dexamethasone after infection. Table 3 indicates the concentration of NaB used and the results obtained.
These examples used the same procedure as Example 1 for CMV growth except that the age of the cells were varied, the cells were treated with 80 mM sodium butyrate 24 hours before infection, and the MCR-5 cells were treated 2 mM calcium chloride (CaCl2), 1% dimethyl sulfoxide (DMSO)and 10^−5M dexamethasone after infection.
These examples used the same procedure as Example 1 for CMV growth except that the age of the cells were varied, the cells were treated with 80 mM sodium butyrate 24 hours before infection, and the MRC-5 cells were treated 2 mM calcium chloride (CaCl2), 1% dimethyl sulfoxide (DMSO), and 10^−5M dexamethasone after infection. The cell age is measured as the time after seeding of the cells in the shell vial.

[1] = test system: CMV in mink lung cells (ATCC No. CCL64); test: CMV shell vial culture in NaB-treated mink lung cells, immunofluorescent staining of IE antigen, count of stained nuclei; format: cell-based; details: for Treated: average # of nuclei staining from three shell vials: 80 mM sodium butyrate 24 hours before CMV infection; for Treated: average # of nuclei staining from three shell vials / counts of positive stained nuclei from 2 shell vials / # of Foci (average # of stained nuclei counted from three shell vials): mink lung; for counts of positive stained nuclei from 2 shell vials: 80 mM sodium butyrate 24 hours before infection; for # of Foci (average # of stained nuclei counted from three shell vials): 80 mM sodium butyrate; for # positive stained nuclei: average of four shell vials
Procedure: as §1, §2
as §3, with “vials. […]” for “vials.”
These examples were prepared using the same procedure as Example 1, except that the concentration of NaB used was varied and both mink lung cells and MRC-5 cells were used. Also, the MRC-5 were treated with NaB before infection and 2 mM CaCl2, 1% DMSO and 10^−5M dexamethasone after infection. Table 3 indicates the concentration of NaB used and the results obtained. […]
These examples used the same procedure as Example 1 for CMV growth except that the time of treatment with sodium butyrate was varied, i.e., the cells were treated with 80 mM sodium butyrate for different times before infection, and the MRC-5 cells were treated with 2 mM calcium chloride (CaCl2), 1% dimethyl sulfoxide (DMSO) and 10^−5M dexamethasone after infection.

[2] = test system: CMV in mink lung cells (ATCC No. CCL64); test: as above; format: cell-based; details: for # of Foci (average # of stained nuclei counted from three shell vials): 80 mM sodium butyrate, mink lung

CCCC(=O)[O-].[Na+] [NaB, sodium butyrate]
cpe = foci of cytopathic effect (HSV-1 in mink lung cells; NaB 2.5 mM, 16 to 24 hours before HSV-1 infection (1:1000)): 18 | cpe = foci of cytopathic effect (HSV-1 in mink lung cells; NaB 5.0 mM before HSV-1 infection): 20 | cpe = foci of cytopathic effect (HSV-1 in mink lung cells; NaB 10.0 mM before HSV-1 infection): 22 | cpe = foci of cytopathic effect (HSV-1 in mink lung cells; NaB 20 mM before HSV-1 infection): 12 | sensitivity for HSV isolation and detection versus RK cells (in words) (HSV-1 in mink lung cells; NaB treated mink lung cells, Table 2): comparable sensitivity | Treated: average # of nuclei staining from three shell vials (CMV in MRC-5 cells; 80 mM sodium butyrate 24 hours before CMV infection, MRC-5, cell age 4 days, CaCl2, DMSO, dexamethasone after infection): 4 | counts of positive stained nuclei from 2 shell vials (CMV in MRC-5 cells; CaCl2, DMSO, dexamethasone after infection, inoculum 10^-0 (no dilution)): 39/29 | counts of positive stained nuclei from 2 shell vials (CMV in MRC-5 cells; CaCl2, DMSO, dexamethasone after infection, inoculum 10^-1 (1:10 dilution)): 3/1 | counts of positive stained nuclei from 2 shell vials (CMV in MRC-5 cells; CaCl2, DMSO, dexamethasone after infection, inoculum 10^-2 (1:100 dilution)): 0/0 | MRC-5 cells # of stained nuclei (CMV in MRC-5 cells; NaB 10 mM before CMV infection): 2 and 3 | MRC-5 cells # of stained nuclei (CMV in MRC-5 cells; NaB 20 mM before CMV infection): 2 | MRC-5 cells # of stained nuclei (CMV in MRC-5 cells; NaB 80 mM before CMV infection): 7 and 6 | effect on susceptibility of mink lung cells to CMV infection at different cell age (in words) ([1]; 80 mM NaB, cell age 2 to 7 days, Table 5): enhanced the susceptibility | Treated: average # of nuclei staining from three shell vials ([1]; cell age 2 days): 123* | Treated: average # of nuclei staining from three shell vials ([1]; cell age 3 days): 121 | Treated: average # of nuclei staining from three shell vials ([1]; cell age 5 days): 78 | Treated: average # of nuclei staining from three shell vials ([1]; cell age 7 days): 30 | counts of positive stained nuclei from 2 shell vials ([1]; cell age 2 days, inoculum 10^-0 (no dilution)): 232/220 | counts of positive stained nuclei from 2 shell vials ([1]; cell age 2 days, inoculum 10^-1 (1:10 dilution)): 44/52 | counts of positive stained nuclei from 2 shell vials ([1]; cell age 2 days, inoculum 10^-2 (1:100 dilution)): 5/2 | counts of positive stained nuclei from 2 shell vials ([1]; cell age 3 days, inoculum 10^-0 (no dilution)): 242/309 | counts of positive stained nuclei from 2 shell vials ([1]; cell age 3 days, inoculum 10^-1 (1:10 dilution)): 47/43 | counts of positive stained nuclei from 2 shell vials ([1]; cell age 3 days, inoculum 10^-2 (1:100 dilution)): 1/2 | # of Foci (average # of stained nuclei counted from three shell vials) ([1]; time of treatment 4 hours before CMV infection): 234 | # of Foci (average # of stained nuclei counted from three shell vials) ([1]; time of treatment 6 hours before CMV infection): 276 | # of Foci (average # of stained nuclei counted from three shell vials) ([1]; time of treatment 18 hours before CMV infection): 360* | response of mink lung cells to NaB treatment versus NaB treated MRC-5 cells (in words) ([1]; CMV infection, Table 3): better response | # positive stained nuclei ([1]; NaB 5 mM, 16 to 24 hours before CMV inoculation, mink lung cells): 22 | Mink lung cells # of stained nuclei ([1]; NaB 10 mM before CMV infection): 7 and 9 | # positive stained nuclei ([1]; NaB 10 mM before CMV inoculation, mink lung cells): 30 | Mink lung cells # of stained nuclei ([1]; NaB 20 mM before CMV infection): 12 | # positive stained nuclei ([1]; NaB 20 mM before CMV inoculation, mink lung cells): 38 | Mink lung cells # of stained nuclei ([1]; NaB 40 mM before CMV infection): 12 and 23 | # positive stained nuclei ([1]; NaB 40 mM before CMV inoculation, mink lung cells): 71 | Mink lung cells # of stained nuclei ([1]; NaB 80 mM before CMV infection): 26 and 32 | # positive stained nuclei ([1]; NaB 80 mM before CMV inoculation, mink lung cells): 85 | increase in number of stained cells as compared with untreated mink lung cells ([1]; NaB 80 mM, CMV, mink lung cells): about 10 fold | sensitivity for CMV isolation and detection versus MRC-5 cells (in words) ([1]; NaB treated mink lung cells, Table 1): far superior sensitivity | optimum concentration for growth of CMV in mink lung cells ([1]; Table 1): about 80 mM | virus detection at high dilution of inoculum (in words) ([1]; mink lung cells treated with NaB 80 mM, Table 4): the virus is still detected | # of Foci (average # of stained nuclei counted from three shell vials) ([2]; time of treatment 2 hours before CMV infection): 126 | # of Foci (average # of stained nuclei counted from three shell vials) ([2]; time of treatment 8 hours before CMV infection): 306 | enhancement of CMV expression ([2]; 2 hour treatment of mink lung cells with NaB (80 mM)): more than a two fold enhancement | time of treatment required for optimum enhancement of CMV expression ([2]; mink lung cells, 80 mM NaB): at least 8 hours
